This is an account of results in patent US6447817B1, “Anti-inflammatory analgesic” (Nippon Hypox Laboratories Inc., priority 1998, dated 2002).

The assay deals with serotonin swelling of rat. Put plainly: Inhibition of serotonin swelling of rat sole after application to the skin. The class given is in vivo. Conditions: for Average swelling ratio (%) / Average inhibition ratio (%): rat right sole, measured 30 min after injection; for Average swelling ratio (%): 1.5 g of 2% xanthan gum solution with 3% test sample applied 2 h before serotonin injection, control 30; for Average inhibition ratio (%): 3% test sample applied 2 h before serotonin injection. As to the method: For clarifying the effect of the anti-inflammation analgesic preparation of the present invention, the effect of the anti-inflammation analgesic preparation on inhibition of serotonin swelling is shown below.
1.5 Grams of a 2% xanthan gum solution containing a test sample of having a concentration of 3% was applied to a portion ranging from a right femoral portion to a sole portion (bottom portion) of a rat. Two hours after the test sample was applied, a solution of 3 μg/ml of serotonin in 0.1 ml of a saline solution was hypodermically injected into the sole of the right foot. Thirty minutes after the injection of the inflammatory substance, the swelling of the sole of the right leg was measured to determine a swelling ratio. When serotonin as an inflammatory substance involving the generation of a pain is injected, a swelling involving a pain is caused.

Each structure is given as a SMILES string. “Also recorded” adds a separate entry of the source.

As for `O=C(O)COc1nn(Cc2ccccc2)c2ccccc12` [Bendazac, reference compound], the “Average swelling ratio (%)” value is reported as 30% and the “Average inhibition ratio (%)” value came out at 0%. Where the note is “rat, 3% test sample applied to skin”, the “Inhibition of serotonin swelling (in words)” value is “failed to inhibit the above inflammation reaction; also recorded: showed no effect on the swelling and was ineffective”.

For the molecule `CCCCCCCCCCCCOC1=C(O)C(=O)O[C@@H]1[C@@H](O)CO` [L-3-0-dodecylascorbic acid], the “Average swelling ratio (%)” value is on record as 14% and the “Average inhibition ratio (%)” value is listed as 54%.

Turning to `CCCCCCCCCCCCC(=O)COC1=C(O)C(=O)O[C@@H]1[C@@H](O)CO` [L-3-0-dodecylcarbonylmethylascorbic acid, L-3-0-dodecylcarbonyl-methylascorbic acid], the “Average swelling ratio (%)” value was 13% and the “Average inhibition ratio (%)” value was found to be 57%.

For `CCOC1=C(O)C(=O)O[C@@H]1[C@@H](O)CO` [L-3-0-ethylascorbic acid], the “Average swelling ratio (%)” value is reported as 12% and the “Average inhibition ratio (%)” value is reported as 76%.

On to `CCCCCCCCCCCCCCCCCCOC(=O)COC1=C(O)C(=O)O[C@@H]1[C@@H](O)CO` [L-3-0-octadecyloxycarbonylmethylascorbic acid], for which the “Average swelling ratio (%)” value was determined as 15% and the “Average inhibition ratio (%)” value came to 50%.

Consider `O=C1O[C@H]([C@@H](O)CO)C([O-])=C1OP(=O)(O)O.O=C1O[C@H]([C@@H](O)CO)C([O-])=C1OP(=O)(O)O.[Mg+2]` [L-ascorbic acid-2-phosphoric acid ester magnesium salt], for which the “Average swelling ratio (%)” value is given as 28% and the “Average inhibition ratio (%)” value came to 7%.
